Columns and labels:
Type in all cases: cell-based, human
IL-4 = experiment: Custom AntibodyArray, TRiPS cells: IL-4; conditions: 15 μg/ml, 30 minutes
Method: (§1) Day 18 TRiPS cells, 1×10^6, were incubated for 30 minutes at 37° C., either with nothing added (“Nil”), with 1 μl CD3/CD28 Dynabeads (Dynal, Oslo, Norway) (“CD3/CD28 beads”) per 100,000 cells, or with CD3/CD28 beads and 15 μg/ml of the compound of formula II (Cpd II). After the incubation, the cells were lysed in Cell-Lytic Mammalian Cell Extraction Reagent (Sigma). After centrifugation to pellet cellular debris, the supernatants (cell extracts) were obtained.
(§2) The cell extracts (supernatants) were then analyzed using a Custom AntibodyArray™ manufactured by Hypromatrix Inc., Worcester, Mass., following the manufacturer's instructions. The Custom AntibodyArray™ is a nylon membrane blotted with antibodies to the proteins listed below. Briefly, the cell extracts were incubated with duplicate Custom AntibodyArray™'s for 2 hours at room temperature with slow shaking, followed by three washes with Tris buffer (150 mM NaCl, 25 mM Tris, 0.05% Tween-20, pH 7.5). HRP-labeled antibodies specific for phosphorylated-tyrosine, phosphorylated-serine and phosphorylated-threonine in Tris buffer were added, and the arrays incubated for 2 hours. After three more washes with Tris buffer, a peroxidase-reactive luminescent substrate was added. The arrays were visualized by exposure to X-ray film. Densitometry of the X-ray films was measured by scanning and computer analysis.

RAP1 = experiment: Custom AntibodyArray, TRiPS cells: RAP1; conditions: 15 μg/ml, 30 minutes
Method: as §1, §2

IL-13 = IL-13 release by PBL, ELISA; conditions: Dex 10 μM; for IL-13 release induced by PHA: donor GR467, 2 μg/ml PHA, 96 h, Cpd II 15 μg/ml, MP 15 μg/ml, FIG. 3
Method: (§3) After this incubation, PHA was added to give a final concentration of 2 μg/ml, and the cells were incubated for an additional 96 hours at 37° C., 5% CO2. All cultures were performed in triplicate. Cells were then removed by centrifugation at 1000 rpm for 10 minutes, and the culture medium collected.
(§4) Release of IL-13 and interferon gamma (IFNγ) into the culture medium was measured by ELISA. To perform the ELISA, matched pairs of antibodies against human IL-13 and IFNγ were purchased from Pierce Biotechnology and Biosource, respectively. ELISA strip well plates were coated with 10 μg/ml of antibody (in phosphate-buffered saline (PBS)) to IL-13 and 4 μg/ml of antibody to IFNγ (in PBS) overnight at room temperature. The plates were then blocked using a 4% BSA solution in PBS for one hour, followed by the addition of 50 μl of experimental culture medium per well in duplicate. The plates were incubated at room temperature for one hour and then washed using 50 mM Tris pH 8.0 with 0.1% Tween 20. Then, solutions of 400 ng/ml biotinylated second antibody to IL-13 and 500 ng/ml biotinylated second antibody to IFNγ were made in blocking buffer, and 100 μl were added per well. The plates were incubated for 1 hour and washed again. A 1:8000 dilution of Strepavidin HRP (Pierce Biotechnology) conjugate was made in blocking buffer, and 100 μl were added to the wells and incubation continued for 30 minutes. A final wash step was performed, after which 100 μl Pierce Biotechnology TMB substrate were added to each well. Color was developed for 30 minutes and stopped by adding 100 μl 0.18 N H2SO4. OD was determined using microplate reader with a 450 nm filter.
(§5) After this incubation, PHA was added to give a final concentration of 5 μg/ml, and the cells were incubated for an additional 72 hours at 37° C., 5% CO2. All cultures were performed in triplicate. Cells were then removed by centrifugation at 1000 rpm for 10 minutes.
The supernatants were collected, and the concentrations of IL-13 and tumor necrosis factor alpha (TNFα) in the supernatants were measured by ELISA. […]

IFNγ = IFNγ release by PBL, ELISA; conditions: donor GR467, Cpd II 15 μg/ml, MP 15 μg/ml, Dex 10 μM, FIG. 4; for IFNγ release, cells stimulated with PHA: 2 μg/ml PHA, 96 h; for IFNγ release, unstimulated cells: no PHA
Method: as §3, §4

TCR-positive cells = experiment: Annexin staining of TCR-positive PBL, flow cytometry (cell death)
Method: as §5
The cells were further analyzed by flow cytometry. Annexin was used to determine populations of dead or dying cells. Anti-CD69 antibody was used to establish the level of cellular activation. Antibody to T-cell receptor αβ (TCR) was also used. Recombinant Annexin 5 (PE and FITC conjugates) and the antibodies were all purchase from Caltag (Burlingham, Calif.) and used following the manufacturer's recommendations.

PI3kinaseP85 = experiment: Custom AntibodyArray, TRiPS cells: PI3kinaseP85; conditions: 15 μg/ml, 30 minutes
Method: as §1, §2

STAT4 = experiment: Custom AntibodyArray, TRiPS cells: STAT4; conditions: 15 μg/ml, 30 minutes
Method: as §1, §2

RAP2 = experiment: Custom AntibodyArray, TRiPS cells: RAP2; conditions: 15 μg/ml, 30 minutes
Method: as §1, §2

14-3-3 = experiment: Custom AntibodyArray, TRiPS cells: 14-3-3; conditions: 15 μg/ml, 30 minutes
Method: as §1, §2

STAT5b = experiment: Custom AntibodyArray, TRiPS cells: STAT5b; conditions: 15 μg/ml, 30 minutes
Method: as §1, §2

RAS = RAS activation pulldown assay in TRiPS cells; conditions: CD3/CD28 beads + 15 μg/ml
Method: Day 10 TRiPS cells, 1×10^6, were incubated with 15 μg/ml of the compound of formula II (Cpd II) for 1 hour at 37° C. Then, the cells were incubated with CD3/CD28 beads (1 μl per 100,000 cells) (obtained from Dynal) for 10 minutes at 37° C. The cells were then lysed with a mild buffer (supplied with Pierce EZ-Detect activation kit described below) to produce cell extracts. Protein concentrations of the resulting extracts were determined by bicinchoninic acid (BCA) assay (Pierce) and placed on ice for immediate use.
Pulldown assays were performed using Pierce EZ-Detect activation kits according to the manufacturer's instructions utilizing GST-RAF-1-RBD and GST-RalGDS-RBD for RAS and RAP-1 respectively. Briefly, 400 μg total protein from each extract was combined with recombinant protein and glutathione resin and incubated at 4° C. for one hour with gentle shaking. The resin was then washed to remove unbound protein and the activated RAS and RAP-1 proteins were removed by boiling in the presence of SDS-PAGE loading dye containing reducing agent. RAS and RAP-1 western blots were performed to visualize the proteins using antibodies supplied with the kit. Densitometry of the X-ray films was done by scanning and computer analysis.

SMILES	Effect of Cpd II on the protein in CD3/CD28 stimulated TRiPS cells (IL-4)	Effect of Cpd II on the protein in CD3/CD28 stimulated TRiPS cells (RAP1)	release of IL-13 from PHA-stimulated PBL (IL-13; donor GR191, 5 μg/ml PHA, 72 h, Cpd II 15 and 50 μg/ml, FIG. 6)	IL-13 release induced by PHA (IL-13)	IFNγ release, cells stimulated with PHA (IFNγ)	IFNγ release, unstimulated cells (IFNγ)	Annexin staining of TCR-positive cells (TCR-positive cells; 15 μg/ml, no PHA, background 7.3%) [%]	Annexin staining of TCR-positive cells (TCR-positive cells; 50 μg/ml, no PHA, background 7.3%) [%]	Annexin staining of TCR-positive cells (TCR-positive cells; PHA 5 μg/ml plus 15 μg/ml, PHA alone 67%) [%]	Annexin staining of TCR-positive cells (TCR-positive cells; PHA 5 μg/ml plus 50 μg/ml, PHA alone 67%) [%]	Effect of Cpd II on the protein in CD3/CD28 stimulated TRiPS cells (PI3kinaseP85)	Effect of Cpd II on the protein in CD3/CD28 stimulated TRiPS cells (STAT4)	Effect of Cpd II on the protein in CD3/CD28 stimulated TRiPS cells (RAP2)	Effect of Cpd II on the protein in CD3/CD28 stimulated TRiPS cells (14-3-3)	Effect of Cpd II on the protein in CD3/CD28 stimulated TRiPS cells (STAT5b)	inhibition of RAS protein (in words) (RAS)	Integrated Optical Density for RAS assay (RAS; no treatment 66.83, beads only 245.91)
COC(=O)C(c1ccc(-c2ccccc2)cc1)C1CCCCN1 (centres unmarked) [Cpd II]	Decreased level back to basal levels (Nil control)	Activated	significantly inhibited the release of IL-13	significantly inhibited IL-13 release induced by PHA	significantly inhibited IFNγ release	significantly inhibited IFNγ release	23	45	62	87	Activated	Activated	Activated	Slightly decreased the level	Activated	very strong inhibition of RAS protein	84.98
COC(=O)C(c1ccccc1)C1CCCCN1 (centres unmarked) [methylphenidate]	–	–	–	increased the release of IL-13 by the PHA-stimulated cells	increased the release of IFNγ by the PHA-stimulated cells	had some effect on the release of IFNγ by unstimulated cells	–	–	–	–	–	–	–	–	–	–	–

Source: US20060183773A1, “Uses of methylphenidate derivatives” (priority 2005, published 2006)
